Results on 8 molecules are retold here after PubChem BioAssay (NCI).

Experiment in all cases: DTP human tumour cell line panel, 48 h
The subject of test [1] is T-47D breast.
Test [2] relates to SN12C renal.
For test [3], the system named is NCI/ADR-RES ovarian.
Test [4] concerns HOP-92 NSCLC.
Test [5] has as its system HT29 colon.
Test [6] has as its system SK-MEL-5 melanoma.
Test [7] deals with OVCAR-3 ovarian.
For test [8], the system named is SK-MEL-28 melanoma.
In test [9] the test system is SF-268 CNS.
For test [10], the system named is NCI-H522 lung.

The structures appear in SMILES notation. Several values for one entry are separate records, joined by “and”; a condition that tells them apart may be missing. Equal entries are not always repeated.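 Five compound concentrations were applied to cells in 96-well plates for 48 hours; endpoints were derived by simple linear interpolation of the resulting dose-response curve. Here, GI50 denotes the concentration required for 50% inhibition of growth. At the TGI there is no net growth.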 A value given as a limit tells only on which side of the number the result lay.

In general, GI50 refers to the concentration giving 50% growth inhibition. A word on the TGI: it is the concentration at which net growth stops. Read a high TGI as less potent growth arrest.

As for `C/C(=N\NC(N)=O)C(CN1CCCCC1)C(c1ccccc1)c1c(O)c2ccccc2oc1=O` (configuration not stated), the GI50 in test [1] was more than 100 µM; in test [3], more than 100 µM; in test [4], 21.6 µM. Besides, the total growth inhibition concentration (TGI) in [1], in [2], in [3], in test [4], in [5] and in [6] was more than 100 µM in each case. Also, the TGI in [7], in test [8], in test [9] and in [10] was more than 100 µM throughout.
Consider `CC(C)C[C@H](NC(=O)[C@H](CCc1ccccc1)NC(=O)CN1CCOCC1)C(=O)N[C@@H](Cc1ccccc1)C(=O)N[C@@H](CC(C)C)C(=O)[C@@]1(C)CO1`, for which the GI50 was less than 0.0128 µM in test [1]; less than 0.0132 µM in [2]; 0.636 µM in [3]; 0.0236 µM in [4]; less than 0.01 µM in test [5]; less than 0.0136 µM in [6]. Moreover, the GI50 in [7] was less than 0.01 µM; in test [8] it was 0.0475 µM; in test [9], less than 0.01 µM; in test [10] it was less than 0.01 µM. For the same molecule, the TGI in test [1] was 0.028 µM; in test [2], 0.0349 µM; in [3], more than 100 µM; in test [4], 0.0812 µM; in [5], 0.0471 µM; in test [6], 0.0434 µM. For the same molecule, the concentration for total growth inhibition (TGI) in test [7] was 0.0172 µM; in test [8], 1.57 µM; in test [9], 0.252 µM; in [10], 0.0239 µM.
As to `Nc1[nH]c(=O)ncc1F`, the TGI in [1], in test [2], in [3], in test [4], in test [5] and in [6] was more than 100 µM each time. Also, the total growth inhibition concentration (TGI) in test [7], in test [8], in test [9] and in test [10] was more than 100 µM in each case.
Take `CN1/C(=C\C(I)C(I)C2=[N+](C)c3ccccc3C2(C)C)C(C)(C)c2ccccc21` (configuration not stated): the GI50 in test [1] was 0.0852 µM; in [2], 0.277 µM; in test [3] it was 13.3 µM; in test [4], 0.0931 µM; in [5] it was 0.242 µM; in test [6], 0.126 µM. Besides, the 50% growth inhibitory concentration (GI50) was 0.304 µM in test [7], 0.522 µM in test [8], 0.479 µM in test [9] and 0.257 µM in [10]. The TGI in test [1] turned out to be 9.39 µM; in [2], 9.86 µM; in [3], 42.2 µM; in test [4], 1.23 µM; in [5], 11.4 µM; in test [6] it was 0.528 µM. Besides, the TGI in test [7] is 13.8 µM; in test [8] it was 19.8 µM; in test [9], 19.1 µM; in [10], 10.2 µM.
For the molecule `CCSc1oc(-c2ccccc2)nc1[P+](c1ccccc1)(c1ccccc1)c1ccccc1`, the concentration for 50% growth inhibition (GI50) was 0.0686 µM in [1]; 0.298 µM in test [2]; 2.29 µM in test [3]; 0.15 µM in test [4]; 0.238 µM in test [5]; 0.164 µM in test [6]. In addition, the GI50 in [7] was 0.268 µM; in [8] it was 0.467 µM; in test [9] it was 0.331 µM; in test [10], 0.261 µM. Further, the TGI came out at 1.15 µM in test [1]; 1.23 µM in test [2]; 9.58 µM in test [3]; 0.551 µM in test [4]; 2.33 µM in test [5]; 0.315 µM in test [6]. The total growth inhibition concentration (TGI) in [7] worked out at 1.7 µM; in [8], 2.32 µM; in [9], 4.02 µM; in [10] it was 1.09 µM.
For `S=c1nc(-c2ccccc2)oc(=NC2CCCCC2)n1C1CCCCC1`, the GI50 in test [1] is 3.85 µM; in test [2], 3.94 µM; in test [3], 5.01 µM; in [5] it was 4.1 µM; in test [6] it was 2.62 µM; in [7], 3.54 µM. The GI50 in test [8] is 14.3 µM; in [9] it was 4.72 µM; in [10], 4.8 µM. Besides, the concentration for total growth inhibition (TGI) in [1] worked out at 21.4 µM; in [2], 18.7 µM; in test [3], 23.4 µM; in [4], 0.079 µM; in test [5], 14.8 µM; in test [6], 9.87 µM. Moreover, the TGI in test [7] turned out to be 11.3 µM; in test [8], 30.2 µM; in test [9] it was 17.6 µM; in test [10], 18.3 µM.
In the case of `CCN1CCN(c2nc(NNC(=O)Cc3ccccc3)nc(N3CCN(C(c4ccccc4)c4ccccc4)CC3)n2)CC1`, the GI50 is 1.85 µM in test [1]; 1.85 µM in test [2]; 3.37 µM in [3]; 1.89 µM in test [4]; 2.24 µM in [5]; 1.71 µM in test [6]. In addition, the GI50 in test [7] was 2 µM; in test [8], 1.6 µM; in test [9], 2.06 µM; in test [10], 1.99 µM. Moreover, the TGI worked out at 4.8 µM in [1]; 3.44 µM in test [2]; 14 µM in [3]; 4.7 µM in [4]; 5.66 µM in test [5]; 3.12 µM in test [6]. Besides, the TGI worked out at 4.08 µM in [7], 2.98 µM in test [8], 5.06 µM in test [9] and 4.18 µM in [10].
With `CCCS(=O)(=O)Nc1ccc(F)c(C(=O)c2c[nH]c3ncc(-c4ccc(Cl)cc4)cc23)c1F`, the GI50 was 5.34 µM and 5.13 µM in test [1]; 4.52 µM and > 8.4 µM in test [2]; 6.75 µM and > 10 µM in test [3]; 2.63 µM and 4.84 µM in test [4]; 0.0887 µM and 0.0812 µM in [5]; 0.471 µM and 1.85 µM in [6]. In addition, the GI50 was 7.65 µM and > 8.66 µM in test [7]; 0.0369 µM and 0.0422 µM in test [8]; 6.09 µM and 6.67 µM in test [9]; 7.14 µM and > 7.96 µM in test [10]. For the same molecule, the total growth inhibition concentration (TGI) is 24.8 µM and > 10 µM in [1]; 21.9 µM and > 10 µM in test [2]; 31.6 µM and > 10 µM in test [3]; 12.5 µM and > 10 µM in [4]; 9.55 µM and > 10 µM in [5]; 13.6 µM and > 10 µM in [6]. Besides, the total growth inhibition concentration (TGI) in [7] was 25.5 µM and > 10 µM; in test [8] it was 2.98 µM and 0.696 µM; in test [9], 23.6 µM and > 10 µM; in [10], 22.3 µM and > 10 µM.
